{"source": "patent US12146879B2", "about": "“Capacitive biosensor for identifying a microorganism or determining antibiotic susceptibility” (priority 2016, dated 2024)", "key": {"[1]": {"tested_on": "E. coli", "assay": "Susceptibility measurement by type of antibiotic with capacitive biosensor (E. coli-specific aptamer)", "assay_type": "cell-based", "details": "antibiotic 100 ng/ml, 37° C., 6 hours, FIG. 8", "procedure": "The susceptibility inspection for antibiotics was performed, after identifying an E. coli using the capacitive biosensor manufactured by treating E. coli-specific aptamer in Experimental Example 2 on the substrate manufactured according to Manufacturing Example 2.\nPBS was treated as a control, each treatment was treated with cephalothin, Gentamicin, Ciprofloxacin and chloramphenicol at a concentration of 100 ng/ml, the change in capacitance with time was measured for 6 hours in an incubator at 37° C."}, "[2]": {"tested_on": "E. coli", "details": "reference value given in the method; cited from earlier work"}, "[3]": {"tested_on": "E. coli", "assay": "Minimum inhibitory concentration by real-time capacitance of capacitive biosensor", "assay_type": "cell-based", "details": "E. coli 10^5 cells/ml grown 2 hours at 37° C.", "procedure": "To determine the minimum inhibitory concentration of an antibiotic, E. coli (10^5 cells/ml) was treated with a capacitive biosensor and grown at 37° C. for 2 hours, and then treated with antibiotic ceftriaxone (MIC: ˜ 30 ng/ml) at concentrations of 100, 80, 60, 40 and 20 ng/ml, respectively. The degree of susceptibility was determined based on the results of the capacitance monitored in real time, and the minimum inhibitory concentration thereof was confirmed.\n(§1) In addition, E. coli (10^5 cells/ml) was treated with a capacitive biosensor and grown at 37° C. for 2 hours, and then treated with antibiotic Gentamicin (MIC: ˜ […]) 50, 5, 0.5, 0.05, and 0.005 μg/ml, respectively. The degree of susceptibility was determined based on the results of the capacitance monitored in real time, and the minimum inhibitory concentration thereof was confirmed."}, "[4]": {"tested_on": "Staphylococcus aureus", "assay": "Minimum inhibitory concentration by real-time capacitance of capacitive biosensor", "assay_type": "cell-based", "details": "Staphylococcus aureus 10^5 cells/ml grown 2 hours at 37° C.; 50, 5, 0.5, 0.05, 0.005 μg/ml; text prints 'this E. coli'", "procedure": "as §1, with “Staphylococcus aureus” for “E. coli”, “then was” for “then”"}, "[5]": {"tested_on": "Ampicillin-resistant E. coli", "assay": "Susceptibility of antibiotic-resistant bacterium by real-time capacitance", "assay_type": "cell-based", "details": "Tetracycline 2 μg/ml, Gentamicin 1 μg/ml, Ampicillin 8 μg/ml; FIG. 11 (b)", "procedure": "(§2) In addition, Tetracycline-resistant E. coli or Ampicillin-resistant E. coli (10^5 cells/ml) was treated with a capacitive biosensor and grown at 37° C. for 2 hours, and was then treated with Tetracycline at a concentration of 2 μg/ml, Gentamicin at a concentration of 1 μg/ml, and Ampicillin at a concentration of 8 μg/ml, respectively. The degree of susceptibility was determined based on the results of the capacitance monitored in real time."}, "[6]": {"tested_on": "Tetracycline-resistant E. coli", "assay": "Susceptibility of antibiotic-resistant bacterium by real-time capacitance", "assay_type": "cell-based", "details": "Tetracycline 2 μg/ml, Gentamicin 1 μg/ml, Ampicillin 8 μg/ml; FIG. 11 (a)", "procedure": "as §2"}, "[7]": {"tested_on": "Staphylococcus aureus", "details": "reference value given in the method; cited from earlier work"}, "[8]": {"tested_on": "other microorganisms", "assay": "Identification of a microorganism: capacitance change of aptamer-fixed biosensor", "assay_type": "binding", "details": "about 2 hours, 37° C., FIG. 6", "procedure": "(§3) An experiment was conducted to confirm whether a microorganism could be identified using the biosensor produced according to Production Example 2.\n(§4) Particularly, each well was treated and fixed with an aptamer specific to E. coli, Acinetobacterbaumannii, Staphylococcus aureus or Enterococcus faecalis, and media (a control group or a control) not containing a microorganism, E. coli, Acinetobacterbaumannii, Staphylococcus aureus or Enterococcus faecalis were treated with a sensor, and then the change in capacitance was measured after about 2 hours in an incubator at 37° C."}, "[9]": {"tested_on": "E. coli", "assay": "Identification of a microorganism: capacitance change of aptamer-fixed biosensor", "assay_type": "binding", "details": "about 2 hours, 37° C., FIG. 6", "procedure": "as §3, §4"}, "[10]": {"tested_on": "Staphylococcus aureus", "assay": "Identification of a microorganism: capacitance change of aptamer-fixed biosensor", "assay_type": "binding", "details": "about 2 hours, 37° C., FIG. 6", "procedure": "as §3, §4"}}, "data": [{"molecule": "O=C(O)c1cn(C2CC2)c2cc(N3CCNCC3)c(F)cc2c1=O", "note": "[Ciprofloxacin]", "values": [{"measurement": "change in capacitance after the addition of antibiotics", "setting": "[1]", "value": "decrease in capacitance"}, {"measurement": "susceptibility or resistance of the bacterium to the antibiotic", "setting": "[1]", "value": "susceptibility"}, {"measurement": "susceptibility or resistance of the bacterium to the antibiotic", "setting": "[1]; listed as ciprofloxacin", "value": "high"}]}, {"molecule": "CO/N=C(\\C(=O)N[C@@H]1C(=O)N2C(C(=O)O)=C(CSc3nc(=O)c(=O)[nH]n3C)CS[C@H]12)c1csc(N)n1", "note": "[ceftriaxone]", "values": [{"measurement": "MIC (stated with the antibiotic)", "setting": "[2]", "value": "~0.03", "unit": "µg/mL"}, {"measurement": "MIC", "setting": "[3]; Escherichia coli, 100, 80, 60, 40 and 20 ng/ml, FIG. 9", "value": 0.04, "unit": "µg/mL"}]}, {"molecule": "CC(=O)OCC1=C(C(=O)O)N2C(=O)[C@@H](NC(=O)Cc3cccs3)[C@H]2SC1", "note": "[cephalothin]", "values": [{"measurement": "change in capacitance after the addition of antibiotics", "setting": "[1]", "value": "increase in capacitance"}, {"measurement": "susceptibility or resistance of the bacterium to the antibiotic", "setting": "[1]", "value": "resistance (tolerance)"}]}, {"molecule": "Gentamicin", "values": [{"measurement": "minimum inhibitory concentration", "setting": "[4]", "value": 0.5, "unit": "µg/mL"}, {"measurement": "MIC (stated with the antibiotic)", "setting": "[2]", "value": 0.5, "unit": "µg/mL"}, {"measurement": "minimum inhibitory concentration", "setting": "[3]; 50, 5, 0.5, 0.05, 0.005 μg/ml, FIG. 10", "value": 0.5, "unit": "µg/mL"}, {"measurement": "change in capacitance after the addition of antibiotics", "setting": "[1]", "value": "decrease in capacitance"}, {"measurement": "susceptibility or resistance of the bacterium to the antibiotic", "setting": "[1]", "value": "susceptibility"}, {"measurement": "change in capacitance value after antibiotic treatment", "setting": "[5]", "value": "decrease in capacitance value"}, {"measurement": "change in capacitance value after antibiotic treatment", "setting": "[6]", "value": "decrease in capacitance value"}, {"measurement": "MIC (stated with the antibiotic)", "setting": "[7]", "value": 0.5, "unit": "µg/mL"}]}, {"molecule": "O=C(N[C@H](CO)[C@H](O)c1ccc([N+](=O)[O-])cc1)C(Cl)Cl", "note": "[chloramphenicol]", "values": [{"measurement": "change in capacitance after the addition of antibiotics", "setting": "[1]", "value": "increase in capacitance"}, {"measurement": "susceptibility or resistance of the bacterium to the antibiotic", "setting": "[1]", "value": "resistance (tolerance)"}]}, {"molecule": "E. coli-specific aptamer: E. coli-specific aptamer, SEQ ID NO: 1, Genotech, Daejeon, Korea (nucleic acid, DNA, backbone and methylation of C not given here; deposited on substrate, further chemistry not fully specified) GCAATGGTACGGTACTTCCCCATGAGTGTTGTGAAATGTTGGGACACTAGGTGGCATAGAGCCGCAAAAGTGCACGCTACTTTGCTAA", "values": [{"measurement": "change in capacitance on treatment with other microorganisms", "setting": "[8]", "value": "did not occur significantly"}, {"measurement": "change in capacitance on treatment with E. coli", "setting": "[9]", "value": "significantly increased"}]}, {"molecule": "Staphylococcus aureus-specific aptamer: Staphylococcal aptamer, SEQ ID NO: 3, Genotech, Daejeon, Korea (nucleic acid, DNA, backbone and methylation of C not given here; deposited on substrate, further chemistry not fully specified) GCAATGGTACGGTACTTCCTCGGCACGTTCTCAGTAGCGCTCGCTGGTCATCCCACAGCTACGTCAAAAGTGCACGCTACTTTGCTAA", "values": [{"measurement": "change in capacitance on treatment with other microorganisms", "setting": "[8]", "value": "did not occur significantly"}, {"measurement": "change in capacitance on treatment with Staphylococcus aureus", "setting": "[10]", "value": "large capacitance change"}]}]}
